# Source: US20100056983A1, “Treatment of cancer using photodynamic therapy” (Health Research, Inc., priority 2007, published 2010)
# Marks after values point to notes of the source that are not given here.
# Experiments:
# [1] = Ratio of normal tissue levels of two photosensitizers in mice to tumor levels; format: in vivo; conditions: 24 h post injection
# Excerpt: A table showing relative concentrations in normal tissue and cancer tissue for various tissue types is shown below. Ratios are shown in the form of concentration in normal tissue/concentration in tumor tissue. Lower numbers thus represent less PDT agent (HPPH or porfimer sodium) in normal tissue relative to concentration in tumor tissue. Lower concentrations in normal tissue would be expected to result in less tissue damage at tumor concentrations sufficient to destroy tumor tissue.
# Ratios were obtained by dividing actual amounts of the photosensitizer in a given tissue by the amount in the tumor.
# Data at 24 h post injection were used since this is the time the mice are treated by light, generally from a laser at non-thermal dose rates.
# [2] = system: squamous cell carcinoma on their larynx; test: HPPH-PDT of a patient with squamous cell carcinoma on the larynx (Example 1); format: in vivo, human
# Description: A person presented with a squamous cell carcinoma on their larynx. They refused surgery and radiation therapy and chose photodynamic therapy treatment using HPPH (2-[1-hexyloxyethyl]-2-devinyl pyropheophorbide a). They were infused over one hour with HPPH at 4 mg/m^2 (about 0.1 mg/kg). The following day they received non-thermal low power laser light treatment (150 mw/cm) at 665 nm in order to activate the photodynamic process. The light was delivered by a single quartz fiber treaded through a laryngoscope. They received 50 Joules/cm of the 665 nm light over 5.5 min.
# [3] = system: squamous cell carcinoma of the floor of the mouth; test: HPPH-PDT of a patient with squamous cell carcinoma of the floor of the mouth (Example 2); format: in vivo, human
# Description: A person presented with a squamous cell carcinoma of the floor of the mouth. They chose to have photodynamic therapy with HPPH (2-[1-hexyloxyethyl]-2-devinyl propheophorbide—a) rather than surgery or radiation therapy. They were infused with 4 mg/m^2 HPPH. The following day they received non-thermal low power laser light (150 mw/cm) at 665 nm in order to activate photodynamic process. The light was delivered by a single quartz fiber threaded through a laryngoscope. They received 50 Joules/cm of the 665 nm light over 5.5 min. […] This was resolved when examined 30 days after treatment.
# [4] = Duration of cutaneous photosensitivity after the photosensitizer; format: in vivo
# Excerpt: Further, porfimer sodium is activated by light at 630 nm, which is suboptimal for tissue penetration. In addition, in tissues found in the upper respiratory system, side effects to normal tissue proximate to a tumor site has been greater than desirable, e.g. edema and normal tissue destruction, sometimes contributing to weeks for recovery and in some cases possibly causing permanent injury to normal proximate tissue. These drawbacks have led to a search for other photosensitizers without these limitations. This is especially important with respect to cancers that interfere with respiration, e.g. nose, mouth, pharynx, larynx and trachea. Temporary interference with digestive function can be tolerated since the body can cope without food input for a significant period of time and additionally, intravenous feeding can be readily done for temporary nutrition. The same case can of course not be made when respiration is involved since interference with respiration for even a short period is exceedingly distressful and in extreme cases can be fatal. In the case of cancers that involve the upper respiratory system it is therefore exceedingly important that damage to normal tissue be avoided. […]
# [5] = system: cancers that involve epithelial type tissue in the upper respiratory system; test: Effective photosensitizer dose for PDT of cancers in the upper respiratory system; format: in vivo, human
# Description: HPPH is effective at doses of only 0.08 to 0.13 mg/kg of body weight (3.5 mg/m2 of body surface area) versus a minimum of 2 mg/kg of body weight for porfimer sodium.
# [6] = system: high grade dysplasia / Barrett's mucosa; conditions: 2 mg/kg, 630±5 nm, 100 to 250 joules/cm, cited from earlier work
# [7] = system: T1 recurrent lesions; conditions: 26 patients, follow up of 6 to 51 months; cited from earlier work
# [8] = system: squamous cell carcinoma of the larynx; conditions: cited from earlier work
# [9] = patients after PDT; cited from earlier work
# [10] = 4 mg/m^2 HPPH, 50 Joules/cm at 665 nm
# [11] = normalized to 5 mg/kg from data obtained at 27 mg/kg
compound,measurement,setting,value
"CCCCCCOC(C)c1c(C)c2cc3nc(c4c5[nH]c(cc6nc(cc1[nH]2)C(C)=C6CC)c(C)c5C(=O)C4)[C@@H](CCC(=O)O)[C@@H]3C (stereo partly shown) [HPPH, 2-(1-hexyloxyethyl)-2-devinyl pyropheophorbide-a]",Ratio concentration in normal tissue/concentration in tumor tissue: Adrenals,[1],0.95
same,Ratio concentration in normal tissue/concentration in tumor tissue: Brain,[1],0.01
same,Ratio concentration in normal tissue/concentration in tumor tissue: Kidney,[1],0.12
same,Ratio concentration in normal tissue/concentration in tumor tissue: Liver,[1],1.9
same,Ratio concentration in normal tissue/concentration in tumor tissue: Lung,[1],2.7
same,Ratio concentration in normal tissue/concentration in tumor tissue: Muscle,[1],0.095
same,Ratio concentration in normal tissue/concentration in tumor tissue: Pancreas,[1],0.11
same,Ratio concentration in normal tissue/concentration in tumor tissue: Spleen,[1],0.14
same,Ratio concentration in normal tissue/concentration in tumor tissue: Urinary Bladder,[1],0.11
same,Absolute Tumor Levels,[1],3 µg/g
same,Effect upon normal tissue,[2]; [10],No affect upon normal tissue
same,Skin photosensitivity,[2]; [10],no skin photosensitivity
same,Response to treatment,"[2]; 4 mg/m^2 HPPH, 50 Joules/cm at 665 nm next day, second follow up at 3 months",complete response
same,Adverse effects after treatment,[2]; completely resolved at first follow up 30 days after treatment,transient edema and hoarseness of voice
same,Effect upon normal tissue,[3]; [10],No effect upon normal tissue
same,Skin photosensitivity,[3]; [10],no skin photosensitivity
same,Response to treatment,"[3]; 4 mg/m^2 HPPH, 50 Joules/cm at 665 nm next day, follow up at 6 months, confirmed by biopsy",complete response
same,Adverse effects after treatment,"[3]; controlled with analgesics, resolved when examined 30 days after treatment",transient moderate pain at the treatment site
same,Duration of prolonged cutaneous photosensitivity,[4]; in vivo,1-2 weeks
same,Effective dose per body surface area,[5]; with light exposure at 665±5 nm,3.5 mg/m2 of body surface area
porfimer sodium,Ratio concentration in normal tissue/concentration in tumor tissue: Adrenals,[1]; [11],6.5^###
same,Ratio concentration in normal tissue/concentration in tumor tissue: Brain,[1]; [11],0.05^###
same,Ratio concentration in normal tissue/concentration in tumor tissue: Kidney,[1],4
same,Ratio concentration in normal tissue/concentration in tumor tissue: Liver,[1],7
same,Ratio concentration in normal tissue/concentration in tumor tissue: Lung,[1],1.7
same,Ratio concentration in normal tissue/concentration in tumor tissue: Muscle,[1],0.33
same,Ratio concentration in normal tissue/concentration in tumor tissue: Pancreas,[1]; [11],4.3^###
same,Ratio concentration in normal tissue/concentration in tumor tissue: Skin,[1],about 0.93
same,Ratio concentration in normal tissue/concentration in tumor tissue: Skin,[1]; listed as PHOTOFRIN,0.93
same,Ratio concentration in normal tissue/concentration in tumor tissue: Spleen,[1]; [11],3.1^###
same,Ratio concentration in normal tissue/concentration in tumor tissue: Urinary Bladder,[1]; [11],5.9^###
same,Absolute Tumor Levels,[1],1.05 µg/g
same,Duration of prolonged cutaneous photosensitivity,[4]; patients after PDT,4-6 weeks
same,Effective dose,[5]; with light exposure (HPPH 665±5 nm),≥ 2 mg/kg of body weight
same,Destruction of high grade dysplasia,[6]; 100 patients,all patients treated
same,Patients with complete ablation of Barrett's mucosa,[6]; 100 patients,43%
same,Patients with esophageal strictures,[6]; all patients treated,34%
same,Patients with complete ablation of Barrett's mucosa with PDT treatment only,[6],8%
same,Patients with complete ablation who required thermal ablation of small residual islands,[6],35%
same,Complete response,[7],77%
same,Recurrences,"[8]; 117 patients treated for cure, follow-up to 189 months (mean 84 months)",10
same,Adverse reactions,[8]; 117 patients with squamous cell carcinoma of the larynx,edema and erythema
same,Period of complete protection from sunlight and bright light because of skin photosensitization,[9],up to 90 days
